Experimental data: patent US5643873A, “Peptides and compounds that bind selectins including endothelial leukocyte adhesion molecule 1” (Affymax Technologies N.V., priority 1994, dated 1997)
Several values for one entry are separate records, joined by “and”; a condition that tells them apart may be missing. Equal values may be shown once. Square brackets hold non-standard residues; d marks the D form. Ends that are not written are not given here. Peptide text beside a SMILES is read from it. Nle = CCCC[C@H](N)C(=O)O

What follows are compounds tested against T1, E-selectin (Homo sapiens, UniProt P16581) (assay: IC50-standard competitive binding assay (radiolabeled standard peptide on immobilized E-selectin)). Details: inhibits 50% of binding of radiolabeled standard […] to E-selectin.
T1 sequence (P16581 22-554): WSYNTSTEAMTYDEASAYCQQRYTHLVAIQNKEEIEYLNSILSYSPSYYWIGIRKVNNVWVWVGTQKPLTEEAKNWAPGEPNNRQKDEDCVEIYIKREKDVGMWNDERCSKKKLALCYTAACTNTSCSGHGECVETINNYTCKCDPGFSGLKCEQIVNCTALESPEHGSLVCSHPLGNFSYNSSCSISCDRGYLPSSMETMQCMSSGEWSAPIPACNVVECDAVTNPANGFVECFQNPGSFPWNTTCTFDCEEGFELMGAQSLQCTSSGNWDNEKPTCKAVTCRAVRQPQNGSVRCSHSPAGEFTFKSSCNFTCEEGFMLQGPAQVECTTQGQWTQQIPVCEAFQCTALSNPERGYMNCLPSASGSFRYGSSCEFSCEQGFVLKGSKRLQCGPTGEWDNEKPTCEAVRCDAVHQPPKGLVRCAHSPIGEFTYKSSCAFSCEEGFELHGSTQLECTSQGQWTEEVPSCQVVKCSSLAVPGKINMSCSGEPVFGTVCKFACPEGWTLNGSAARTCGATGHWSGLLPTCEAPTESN
Parameters: truncated form comprising the complete extracellular domain (amino acids 1 through 554); made in house; a baculovirus soluble form is also mentioned as an option
Excerpt: This latter peptide has strong binding affinity to E-selectin and, accordingly, was used as a standard in a competitive binding assay with candidate peptides and peptide mimetics in order to determine relative binding affinities for E-selectin.
This example measures the concentration of peptide or peptide mimetic required to inhibit 50% of the binding of a radiolabeled standard to E-selectin and the resulting IC50 value is referred to as the "IC50 -standard". In this example, the standard corresponds to the synthetic peptide […] (SEQ ID NO 114) which comprises a known initial seven amino acid group which is a substrate for protein kinase A followed by a 2 amino acid spacer and a 12 amino acid sequence which corresponds to the peptide identified by SEQ ID NO 3 which has an IC50 -HL60 of 10 μM. The peptide is radiolabeled by phosphorylation using either […] or ^33 P phosphate by conventional methods via the protein kinase A. The example is a competitive assay in which 6.5 picograms at 1400 Ci/mmol (65000 cpm) of radiolabelled standard (1400 Ci/mmol) is combined with a titered amount of candidate peptide or peptide mimetic in a constant volume of 30 μL. The combined solution is then added to E-selectin immobilized onto a solid surface in the manner described above. The resulting mixture is then incubated for about 120 minutes to permit equilibrium binding to be achieved. Afterwards, unbound materials are separated from bound materials by conventional methods (e.g., washing) and the amount of the […] bound to E-selectin is determined by scintillation counting. The assay is repeated over several concentrations of candidate peptide or peptide mimetic and the results are entered into a graph whose y axis is the amount of radiolabeled standard bound to E-selectin (measured in cpm) and the x axis is the amount of candidate peptide or peptide mimetic. The results are graphically extrapolated to determine the concentration at which the peptide or peptide mimetic will reduce by 50% the amount of radiolabeled standard bound to E-selectin. This concentration is taken as the IC50 -standard for that peptide or peptide mimetic.

Question: With `CCCC[C@H](NC(=O)[C@H](CC(C)C)NC(=O)[C@H](CC(=O)O)NC(=O)[C@H](Cc1c[nH]c2ccccc12)NC(=O)[C@H](CC(C)C)NC(=O)[C@H](CCC(N)=O)NC(=O)[C@H](CC(=O)O)NC(=O)[C@H](Cc1c[nH]c2ccccc12)NC(=O)[C@@H](NC(=O)[C@@H](NC(=O)[C@H](CC(=O)O)NC(=O)CNC(=O)[C@@H](N)CC(=O)O)[C@@H](C)CC)[C@@H](C)O)C(=O)N[C@@H](CCCCN)C(=O)O` (H-DGDITWDQLWDL[Nle]K-OH) as the compound, how does the IC50 read?
Answer: 42 nM

Question: How did the IC50 turn out when `CCCC[C@H](NC(=O)[C@H](CCCC)NC(=O)[C@H](CC(N)=O)NC(=O)[C@H](Cc1c[nH]c2ccccc12)NC(=O)[C@H](CC(C)C)NC(=O)[C@H](CCC(N)=O)NC(=O)[C@H](C)NC(=O)[C@H](Cc1c[nH]c2ccccc12)NC(=O)[C@@H](NC(=O)[C@@H](NC(=O)[C@@H](N)CC(=O)O)[C@@H](C)CC)[C@@H](C)O)C(=O)N[C@@H](CC(N)=O)C(=O)O` (H-DITWAQLWN[Nle][Nle]N-OH) was run?
Answer: 425 nM

Question: For `CC[C@H](C)[C@H](NC(=O)[C@@H](N)CC(=O)O)C(=O)N[C@H](C(=O)N[C@@H](Cc1c[nH]c2ccccc12)C(=O)N[C@@H](CC(=O)O)C(=O)N[C@@H](CCC(N)=O)C(=O)N[C@@H](CC(C)C)C(=O)N[C@@H](Cc1c[nH]c2ccccc12)C(=O)N[C@@H](CC(=O)O)C(=O)N[C@@H](CC(C)C)C(=O)N[C@@H](CCSC)C(=O)N[C@H](CCCCN)C(=O)O)[C@@H](C)O` (H-DITWDQLWDLM[dK]-OH), which IC50 is on record?
Answer: 1000 nM

Question: For `CCCC[C@H](NC(=O)[C@H](CC(C)C)NC(=O)[C@H](CC(=O)O)NC(=O)[C@H](Cc1c[nH]c2ccccc12)NC(=O)[C@H](CC(C)C)NC(=O)[C@H](CCC(N)=O)NC(=O)[C@H](CC(=O)O)NC(=O)[C@H](Cc1c[nH]c2ccccc12)NC(=O)[C@@H](NC(=O)[C@@H](NC(=O)[C@@H](N)CC(=O)O)[C@@H](C)CC)[C@@H](C)O)C(=O)N[C@@H](CCCCN)C(=O)O` (H-DITWDQLWDL[Nle]K-OH), which IC50 is on record?
Answer: 23 nM

Question: Which IC50 does the source give for `CC[C@H](C)[C@H](NC(=O)[C@@H](N)CC(=O)O)C(=O)N[C@H](C(=O)N[C@@H](Cc1c[nH]c2ccccc12)C(=O)N[C@@H](CC(=O)O)C(=O)N[C@@H](CCC(N)=O)C(=O)N[C@@H](CC(C)C)C(=O)N[C@@H](Cc1c[nH]c2ccccc12)C(=O)N[C@@H](CC(=O)O)C(=O)N[C@H](CC(C)C)C(=O)N[C@@H](CCSC)C(=O)N[C@@H](CCCCN)C(=O)O)[C@@H](C)O` (H-DITWDQLWD[dL]MK-OH) here?
Answer: 33000 nM

Question: `CC[C@H](C)[C@H](NC(=O)[C@@H](N)CC(=O)O)C(=O)N[C@H](C(=O)N[C@@H](Cc1c[nH]c2ccccc12)C(=O)N[C@H](CC(=O)O)C(=O)N[C@@H](CCC(N)=O)C(=O)N[C@@H](CC(C)C)C(=O)N[C@@H](Cc1c[nH]c2ccccc12)C(=O)N[C@@H](CC(=O)O)C(=O)N[C@@H](CC(C)C)C(=O)N[C@@H](CCSC)C(=O)N[C@@H](CCCCN)C(=O)O)[C@@H](C)O` (H-DITW[dD]QLWDLMK-OH) was tested. Which IC50 did it give?
Answer: 34 nM

Question: With `CC[C@H](C)[C@H](NC(=O)[C@@H](N)CC(=O)O)C(=O)N[C@@H](C(=O)N[C@@H](Cc1c[nH]c2ccccc12)C(=O)N[C@@H](CC(=O)O)C(=O)N[C@@H](CCC(N)=O)C(=O)N[C@@H](CC(C)C)C(=O)N[C@@H](Cc1c[nH]c2ccccc12)C(=O)N[C@@H](CC(=O)O)C(=O)N[C@@H](CC(C)C)C(=O)N[C@@H](CCSC)C(=O)N[C@@H](CCCCN)C(=O)O)[C@H](C)O` (H-DI[dT]WDQLWDLMK-OH) as the compound, how does the IC50 read?
Answer: 2700 nM

Question: Which IC50 does the source give for `CC[C@@H](C)[C@@H](NC(=O)[C@@H](N)CC(=O)O)C(=O)N[C@H](C(=O)N[C@@H](Cc1c[nH]c2ccccc12)C(=O)N[C@@H](CC(=O)O)C(=O)N[C@@H](CCC(N)=O)C(=O)N[C@@H](CC(C)C)C(=O)N[C@@H](Cc1c[nH]c2ccccc12)C(=O)N[C@@H](CC(=O)O)C(=O)N[C@@H](CC(C)C)C(=O)N[C@@H](CCSC)C(=O)N[C@@H](CCCCN)C(=O)O)[C@@H](C)O` (H-D[dI]TWDQLWDLMK-OH) here?
Answer: 27 nM

Question: How did the IC50 turn out when `CCCC[C@H](NC(=O)[C@H](CC(C)C)NC(=O)[C@H](CC(=O)O)NC(=O)[C@H](Cc1c[nH]c2ccccc12)NC(=O)[C@H](CC(C)C)NC(=O)[C@H](CCC(N)=O)NC(=O)[C@H](CC(=O)O)NC(=O)[C@H](Cc1c[nH]c2ccccc12)NC(=O)[C@@H](NC(=O)[C@@H](NC(=O)[C@@H](N)CCC(N)=O)[C@@H](C)CC)[C@@H](C)O)C(=O)N[C@@H](CCCCN)C(=O)O` (H-QITWDQLWDL[Nle]K-OH) was run?
Answer: 65 nM

Question: Which IC50 does the source give for `CC[C@H](C)[C@H](NC(=O)[C@H](N)CC(=O)O)C(=O)N[C@H](C(=O)N[C@@H](Cc1c[nH]c2ccccc12)C(=O)N[C@@H](CC(=O)O)C(=O)N[C@@H](CCC(N)=O)C(=O)N[C@@H](CC(C)C)C(=O)N[C@@H](Cc1c[nH]c2ccccc12)C(=O)N[C@@H](CC(=O)O)C(=O)N[C@@H](CC(C)C)C(=O)N[C@@H](CCSC)C(=O)N[C@@H](CCCCN)C(=O)O)[C@@H](C)O` (H-[dD]ITWDQLWDLMK-OH) here?
Answer: 25 nM

Question: How did the IC50 turn out when AEKWDQLWHVMNPAESQ was run?
Answer: 65 nM

Question: With DGDITWDQLWDLMK as the compound, how does the IC50 read?
Answer: 4 nM

Question: With DITWDELWKIMN as the compound, how does the IC50 read?
Answer: 7 nM

Question: For DITWDQLWDLMK, which IC50 is on record?
Answer: 3 nM

Question: With DITWDQLWDLMK-NH2 as the compound, how does the IC50 read?
Answer: 22 nM

Question: With DYSWHDLWEMMS as the compound, how does the IC50 read?
Answer: 16 nM

Question: How did the IC50 turn out when DYTWFELWDMMQ was run?
Answer: 6 nM

Question: With HITWDQLWRIMT as the compound, how does the IC50 read?
Answer: 28 nM

Question: For QITWAQLWNMMK, which IC50 is on record?
Answer: 12 nM

Question: Which IC50 does the source give for RNMSWLELWEHMK here?
Answer: 35 nM

Same assay, conditions: inhibits 50% of binding of radiolabeled standard to E-selectin

Question: For ITWDQLWDLMK, which IC50 is on record?
Answer: 11 nM

Question: How did the IC50 turn out when TWDQLWDLMK was run?
Answer: 12000 nM

Each compound was assayed against T1, E-selectin (assay: HL60 cell adhesion assay (labeled HL60 cells adhering to immobilized E-selectin)). Details: concentration reducing by 50% the binding of HL60 cells to immobilized E-selectin.
Type: cell-based
Parameters: truncated form comprising the complete extracellular domain (amino acids 1 through 554); made in house
Procedure: By comparing test wells with control wells (no receptor), one can determine whether a peptide binds to E-selectin specifically. […] In this regard, HL60 cells are known to contain surface glycoconjugates which bind to E-selectin.
Peptides that block the binding of labeled HL60 cells to E-selectin are then evaluated to determine their IC50 -HL60 in the manner also specified in Example 1.
The assay requires HL60 cells labeled with tritiated thymidine. To label the cells, about 10 million HL60 cells are collected by centrifugation (2500 RPM for 3 minutes) and resuspended in 15 mL of DMEM/F12 plus 5% fetal calf serum containing 2 μCi/mL of tritiated thymidine (Amersham). The cells are then placed in a T75 flask and incubated at 37° C. for 24 hours. The cells are then collected by centrifugation, washed twice with RPMI/HEPES/0.1% FCS, and resuspended in the same solution at a concentration of about one to two million cells per mL. About 100 μL of this cell preparation are used per well of a 96-well microtiter dish in the assay.
The wells of the microtiter dish were first coated with the anti-receptor immobilizing antibody, an anti-HPAP-tail antibody, using about 2.5 μg of antibody per well. […]
After the test compound incubation period, 100 μL of labeled HL60 cells were added to each well, and the microtiter plate was incubated at 4° C. for 30 minutes. […] After this incubation, aliquots were removed from each well and placed in scintillation vials; scintillation fluid was added to each vial; and the radioactivity in each aliquot was quantitated by liquid scintillation counting. […]
The concentration of any peptide or peptide mimetic required to reduce by 50% the binding of HL60 cells to E-selectin as per the assay of Example 1 is determined by the following procedure. […] (SEQ ID NO 23), was determined. […]

Question: With DITWDQLWDLMK as the compound, how does the IC50 read?
Answer: < 10000 nM and 10000 nM

Question: Which IC50 does the source give for HITWDQLWNVMN here?
Answer: 50000 nM and 100000 nM and ~50000 nM

Same assay, conditions: peptide at 200 μM, FIG. 1

Question: How did the “blocking of HL60 cell binding that occurred in the absence of added compound” value turn out when HITWDQLWNVMN was run?
Answer: over 80%
